This is an account of results in article PMC8427247, “Actinobacillus utilizes a binding protein–dependent ABC transporter to acquire the active form of vitamin B6” (The Journal of Biological Chemistry, 2021).

Usually Kd stands for a measure of binding affinity in units of concentration.

Assay [1] deals with T1, P5PA WT (Actinobacillus pleuropneumoniae, UniProt B0BUC2). Briefly: Microscale thermophoresis (MST) with fluorescently labeled P5PA. The assay is classed as binding. Here is the method:
(§1) P5PA was fluorescently labeled using RED-NHS Second Generation Protein Labeling Kit (NanoTemper). Briefly, 90 μl of purified apo-P5PA at 10 μM was mixed with 10 μl of the provided labeling dye at 300 μM. The mixture was incubated in dark for 30 min and loaded to a special gravity column that is pre-equilibrated in PBS with 0.05% Tween-20 (PBST). After washing the column with 550 μl of PBST, another 450 μl of PBST was added to elute the fluorescently labeled apo-P5PA. The yield of the labeled P5PA was determined by 280-nm readings made on a Nanodrop.
(§2) A target compound was successively diluted in PBST by a dilution factor of two to make a total of 16 different concentrations. Then, 10 μl of the labeled P5PA was added to an equal volume of the diluted compounds and loaded to standard capillaries (NanoTemper). The Binding Affinity Mode of Monolith NT.115 (NanoTemper) was used to detect fluorescence changes and deduct Kd.
(§3) Supplementary Table2. The concentrations of protein and compounds used in MST
(§4) Labeled Protein Concentration Compound Highest Working
(§5) P5PA 25 Pyridoxal-5’-phosphate (P5P) 1.40 µM
(§6) P5PA 25 Pyridoxamine (PM) 448 mM
Background: In MST a laser heats a spot of the sample, and binding alters the fluorescence response.

Assay [2] addresses T1, P5PA WT. Briefly: Isothermal titration calorimetry (ITC), ligand titrated into P5PA. The assay is classed as binding. As to the method:
The purification method described in the P5PA protein purification section was modified as follows in order to purify apo-P5PA for ITC. Before elution, P5PAwas denatured in the gravity column. To denature P5PA, 6 M guanidine hydrochloride (GdHCl) was applied to the column, after which a refolding step was performed by stepwise addition of 4.5 M GdHCl, 3 M GdHCl, and finally 1.5 M GdHCl. The protein was then washed with lysis buffer and eluted with elution buffer ([15]). The subsequent purification steps were the same as previously described.
ITC was performed using an auto-iTC200 (Microcal) at the Structure and Biophysical Core Facility within the Peter Gilgan Centre for Research & Learning (Hospital for Sick Children, Toronto, Canada). Runs consisted of titrating ligand loaded into the injection syringe against purified protein, which was loaded into the sample cell. About 45 μM of purified P5PA was stored in ITC buffer (20 mM Tris, pH 8, and 100 mM NaCl) at 4 °C. The same buffer was used to make solutions of 300 μM G6P, 300 μM P5P, and 45 μM bovine serum albumin. P5PA, bovine serum albumin, and ITC buffer alone were titrated with P5P or G6P. The parameter setting was 2 μl/injection for a total of 20 injections. Data applied to calculate binding constants were referenced against runs performed with ligand alone to control for the heat of ligand solvation.
On the technique in general: Isothermal titration calorimetry measures the heat released or taken up as one component is titrated into another.

In assay [3] the test system is A. pleuropneumoniae pdxS and pdxT disrupted mutants. Also noted: method as in PMID 28448619. Conditions: supplementation with 10 μM P5P; cited from earlier work.
The test system of assay [4] is WT strain of E. coli K-12. The experiment in a line: E. coli growth assay in M9 minimal media supplemented with P5P. Conditions: P5P 0 to 10 μM, 24 h incubation. Format: cell-based, Escherichia coli.
The subject of assay [5] is E. coli K-12 ΔpdxB mutant. The assay is described as above. The assay is classed as cell-based, Escherichia coli. As to the method:
The ΔpdxB mutant of E. coli K-12 strain was obtained from the Keio collection ([45]). The ΔpdxB mutant was transformed with either pSC101, pSC101-P5PAB, or pSC101-P5PAB + AfuC and grown in LB broth overnight at 37 °C with shaking. The starters were then washed twice with M9 medium and inoculated at an absorbance of 0.05 at 600 nm into M9 medium supplemented with P5P. The P5P concentrations used were 0, 1, 2.5, and 5 μM. Growth assays were performed in both culture tubes and 100-well microplates ([15], [17]). For cell growth in culture tubes, 5 ml of P5P-supplemented M9 was used, and readings of absorbance at 600 nm were measured after a 23-h incubation at 37 °C with shaking. For cell growth in 100-well microplates, 200 μl of P5P-supplemented M9 was applied to each well, and microplates were incubated in a Bioscreen C microplate reader (Growth Curves USA) at 37 °C with shaking. Absorbance values at 600 nm were measured every 15 min for a time course of 40 h.

For another assay, the target named is T2, P5PA T149A (Actinobacillus pleuropneumoniae, UniProt B0BUC2, T175A).
T2 sequence (B0BUC2 26-343 T175A): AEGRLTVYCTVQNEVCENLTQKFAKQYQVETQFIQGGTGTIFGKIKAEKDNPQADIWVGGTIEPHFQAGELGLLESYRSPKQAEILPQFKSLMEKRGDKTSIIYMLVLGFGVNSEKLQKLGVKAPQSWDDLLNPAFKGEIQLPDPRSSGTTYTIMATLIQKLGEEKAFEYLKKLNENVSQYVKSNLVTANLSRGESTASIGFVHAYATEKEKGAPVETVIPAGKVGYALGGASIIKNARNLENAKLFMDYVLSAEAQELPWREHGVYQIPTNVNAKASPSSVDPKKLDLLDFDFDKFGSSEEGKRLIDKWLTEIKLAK
The experiment in a line: Microscale thermophoresis (MST) with fluorescently labeled P5PA mutant. The assay is classed as binding. Here is the method:
as §1, §2, §3, §4, §5, §6

The target in another assay is T3, P5PA H203A (Actinobacillus pleuropneumoniae, UniProt B0BUC2, H229A).
T3 sequence (B0BUC2 26-343 H229A): T2 sequence (B0BUC2 26-343 T175A)
The description is as above. Format: binding. Here is the method:
as §1, §2, §3, §4, §5, §6

A further assay has as its target T4, P5PA Y103A (Actinobacillus pleuropneumoniae, UniProt B0BUC2, Y129A).
T4 sequence (B0BUC2 26-343 Y129A): T2 sequence (B0BUC2 26-343 T175A)
The assay is described as above. Format: binding. As to the method: as §1, §2, §3, §4, §5, §6

For the next assay, the system named is AfuA E229A. Further details: method as in PMID 26295949. The note with it: AfuA E229A mutant; cited from earlier work.
The test system of a further assay is AfuA H205A. Further details: method as in PMID 26295949. Conditions: AfuA H205A mutant; cited from earlier work.
In a further assay the test system is AfuA D206A. Further details: method as in PMID 26295949. Conditions: AfuA D206A mutant; cited from earlier work.
The mark [6] stands for this setting: MST, P5PA WT, n = 3, read-out: Kd.

`Cc1ncc(CO)c(C=O)c1O` [PL, pyridoxal]: on P5PA WT [1] (setting [6]), the Kd stood at 13000 ± 4000 µM.

For `Cc1ncc(CO)c(CN)c1O` [PM, pyridoxamine], the Kd at P5PA WT [1] (setting [6]) amounted to 8000 ± 4000 µM.

On to `Cc1ncc(COP(=O)(O)O)c(C=O)c1O` [P5P, pyridoxal-5′-phosphate], for which the Kd was determined as 0.036 ± 0.007 µM at P5PA WT [2]; 0.028 ± 0.015 µM on P5PA WT [1]; 1.3 ± 0.3 µM on P5PA T149A; 10 ± 4 µM on P5PA H203A; 17 ± 8 µM on P5PA Y103A. In assay [3], the “growth of pdxS/pdxT mutants” value is recorded as “rescued growth”. Besides, the “growth of WT strain” value in assay [4] was “not affected by the concentration of supplemented P5P”. The “growth defects of the four transformants and the ΔpdxB mutant” value in assay [5] (M9, P5P at 5 μM) was “partially restored”. In addition, the “growth of ΔpdxB mutant expressing pSC101-P5PAB + AfuC” value in assay [5] (M9, P5P at 1 and 2.5 μM, p < 0.01, two-tailed t test) is given as “rescued”. Also, the “growth of ΔpdxB mutant” value in [5] (M9 minimal media, P5P 0 to 10 μM, 24 h incubation) is “severe growth deficiency in all conditions except P5P concentrations of 5 and 10 μM”.

`O=C[C@H](O)[C@@H](O)[C@H](O)[C@H](O)COP(=O)(O)O` [G6P, glucose-6-phosphate]: the binding activity result on P5PA WT [2] (ITC, 300 μM ligand into 45 μM P5PA) is “no significant binding activity”. In addition, the “released heat for each titration” value on P5PA WT [2] (ITC, 300 μM ligand into 45 μM P5PA, insufficient to calculate a dissociation constant) is “approximately 3 kJ/mol”. Moreover, the binding affinity result in the assay with AfuA E229A, in the assay on AfuA H205A and in the assay on AfuA D206A was “undetectable” in each case. For the same compound, at P5PA WT [1] (setting [6]), the Kd is 11000 ± 3000 µM.
